Assay results: patent US20080032961A1, “Therapy employing LXRalpha modolators” (priority 2001, published 2008)

Experiments:
Assay type in all cases: cell-based
[1] = tested on: LXRα mRNA in 3T3-L1 adipocytes; assay: Northern blot analysis of LXRα mRNA in 3T3-L1 adipocytes; conditions: for LXRα mRNA (Northern blot of total RNA): differentiating 3T3-L1 cells, 22-R 5 μM, Darglitazone 1 μM, alone or in combination, 24 hours, FIG. 2
Protocol: We performed Northern blot analysis on total RNA from 3T3-L1 adipocytes treated with increasing doses of a PPARγ agonist. Adipocytes treated over a 24 hrs period with […] of Darglitazone. 20 μg total RNA was subjected to Northern blotting and probed with a ^32P-labeled LXRα cDNA probe. The signal was obtained by scanning the autoradiogram and normalised for 18S RNA expression. […] These concentrations are in agreement with concentrations required for activation of PPARγ in reporter assays (Lehmann et al. 1995).
(§1) 3T3-L1 cells committed to adipocyte differentiation were treated with either Darglitazone, the LXRα agonist 22-R-hydroxy cholesterol, or both. 22-R-hydroxy cholesterol (22-R) is a naturally occurring agonist for LXRα (Janowski et al. 1996). […] Therefore, treatment of 3T3-L1 pre-adipocytes with either a PPARγ agonist or an LXRα agonist leads to fat accumulation and increased expression of LXRα.
(§2) The 3T3-L1 cell line (ATCC) was maintained in DMEM supplemented with 10% fetal calf serum, 2 mM L-glutamine and penicillin/streptomycin at 37° C. Cells were grown to confluence and exposed to adipogenic reagents for 3 days, followed by culturing for 3 more days in medium containing insulin only as described elsewhere (Lin and Lane, 1992). Insulin was used at a concentration of 1 μg/ml, dexamethasone at 1 μM and isobutylmethylxanthine at 0.5 mM.
(§3) Total RNA from differentiated 3T3-L1 adipocytes or adipose tissue were extracted by the Trizol (Life Technologies, Inc.) method as recommended by the manufacturer. Northern blot analysis of RNA was performed as described earlier (Sorensen et al., 1994). 20 μg of total RNA was analyzed for LXRα and ribosomal protein 18S mRNA.

3T3-L1 cells = assay: Oil Red O staining of lipid droplet accumulation / adipocyte differentiation of 3T3-L1 cells; conditions: for lipid droplets (Oil Red-O staining): 3T3-L1 cells committed to adipocyte differentiation
Protocol: as §1, §2
Light microscopy and Oil Red O staining were used to monitor the characteristic cell rounding and lipid droplet accumulation in these cells during differentiation. Images were taken using a microscope (Leica DMIL) and a dual-colour charge coupled device camera (Leica MPS 60).

[2] = tested on: LXRα mRNA in human adipocytes; assay: Northern blot analysis of LXRα mRNA in human adipocytes; conditions: 1 μM Darglitazone, 5 μM 22-(R)-hydroxy cholesterol or both, 48 hrs, FIG. 3
Protocol: Human adipocytes were obtained from breast reduction surgery. Pieces of adipose tissue (5-600 mg) were prepared under sterile conditions and used for incubations in plastic tubes essentially as described (Ottosson et al., 1994). PolyA+ RNA was isolated and subjected to Northern blot analysis (FIG. 3).
as §3

Row | SMILES | LXRα mRNA (Northern blot of total RNA) [1] | lipid droplets (Oil Red-O staining) (3T3-L1 cells) | adipocyte differentiation of 3T3-L1 pre-adipocytes (3T3-L1 cells; 3T3-L1 pre-adipocytes) | expression levels of LXRα mRNA (Northern blot of PolyA+ RNA) [2] | induction of LXRa mRNA ([1]; 3T3-L1 adipocytes, 24 hrs, 0.01, 0.1, and 1 mM, normalised for 18S RNA, FIG. 1)
1 | CC(C)CC[C@@H](O)[C@@H](C)[C@H]1CC[C@H]2[C@@H]3CC=C4C[C@@H](O)CC[C@]4(C)[C@H]3CC[C@]12C [22-R-hydroxy cholesterol] | increase | gradually larger lipid droplets | enhances adipocyte differentiation | increased expression levels | –
2 | Cc1oc(-c2ccccc2)nc1CCC(=O)c1ccc(CC2SC(=O)NC2=O)cc1 (centres unmarked) [Darglitazone] | increase | gradually larger lipid droplets | – | increased expression levels | approximately 5 fold
